Laboratory results from patent US20230331679A1, “NAPHTHALENE MONOIMIDE COMPOUNDS AND METHODS THEREOF” (JAWAHARLAL NEHRU CENTRE FOR ADVANCED SCIENTIFIC RESEARCH, priority 2020, published 2023).

Key:
Assay type in all cases: in vivo
[1] = MALDI mass analysis of brain lysate (BBB crossing); conditions: WT mice, brains collected after 1 h
Description: Pharmacokinetics of TGR63 in wild-type (WT) mice was performed to assess its in vivo efficacy. The lethal dose 50 (LD50) of TGR63 was determined in WT mice through intraperitoneal (IP) injection following the Organisation for Economic Cooperation and Development (OECD) guidelines. […] FIG. 7A illustrates the calculation of lethal dose 50% (LD50) of TGR63 through intraperitoneal administration and is represented as table of experimental details and the final observation was done on 14th day. FIG. 7B illustrates the mortality (%) plotted against TGR63 concentration and calculation of LD50. Twenty-five WT mice were segregated in five different groups (G1-5, N= 5 per group) and administered with varying doses of TGR63 (1.7, 5.5, 17.5 56.0 and 179.0 mg/kg body weight, respectively) through IP injection and their survival was monitored for 14 days. The serum stability and blood-brain barrier (BBB) crossing ability of TGR63 were assessed through matrix-assisted laser desorption ionization (MALDI) mass spectrometry analysis of blood and brain samples of vehicle and TGR63 treated mice. […] The partition coefficient (P), a valuable physical property was calculated to predict the BBB permeability. […] The calculated positive logP value predicts the possible BBB crossing ability for TGR63. […]

APP/PS1 and WT mice = assay: Morris water maze (MWM) test
Description: The spatial and episodic memory formation under AD conditions were investigated through spatial learning and memory development tasks in MWM test. MWM test was performed in a water pool (radius: 70 cm) and experimental mice were trained four times in a day to find a hidden platform, which was removed in probe trial to assess the spatial memory. The latency time to reach the hidden platform during the training period was recorded to determine spatial learning (FIG. 16H). […] In the probe trial, AD vehicle cohort spent most of the time (~87% of total time) in other quadrants (without platform), while other cohorts (WT vehicle, WT TGR63 and AD TGR63) spent only ~67%, 58% and 66% of total time in without platform quadrants, respectively. The AD vehicle cohort spent minimum time (~13% of total time) in target quadrant (with platform) compared to WT vehicle cohort (~33% of total time). […] Remarkably, AD TGR63 cohort crossed the platform region ~4 times, which is greater than the AD vehicle cohort.

APP/PS1 mice = assay: Amyloid burden in brain by OC immunohistochemistry
Source text: To evaluate the activity of TGR63 to ameliorate amyloid burden in in vivo AD model, APP/PS1 mice were bred, maintained and characterized (WT: wild type; AD: APP/PS1 positive) according to the Jackson Laboratory protocols. The double transgenic APP/PS1 mice (B6C3-Tg (APPswe, PSEN IdE9)85Dbo/J; stock number 004462), which express human transgenes APP and presenilin 1 (PS1) in the central nervous system (CNS) contains the Swedish and […], respectively. The K595N/M596L (Swedish) mutation favors the amyloidogenic processing of APP protein, and PS1 mutation ([…]) elevates the production of Aβ peptides through modifying the intra-membrane γ-complex. The presence of Aβ plaques in the APP/PS 1 AD phenotypic mouse brain was confirmed and compared with the healthy brain by Aβ plaques-specific staining protocols. FIG. 13 depicts the Staining of amyloid plaques with OC primary antibody and ThT or CQ probe, FIG. 13A represent the high-resolution confocal microscopy images of cortex and hippocampus regions of the AD mouse brain, immunostained with OC antibody (red), DAPI (blue) and ThT (green). The merged images display significant overlap between ThT and OC staining to confirm the amyloid deposition (pointed with white arrows), FIG. 13A represent the visualization of amyloid deposits associated neuronal damage: The DIC images of different regions of AD. The merged images of DIC and confocal microscopy images show amyloid plaques associated brain damage (pointed out with red arrows). The brains were harvested from the age matched WT and AD mice and treated with PFA (4%) and sucrose solution (30%) for the sagittal brain sectioning (40 µm sections). The brain sections were co-stained with ThT (λex= 442 nm, λem= 482 nm) and OC primary antibody followed by fluorescently labeled secondary antibody (λex= 633 nm, λem= 650 nm) or CQ to visualize and confirm the amyloid plaques deposition. […] Similar fluorescence signals (green and red) were absent in the age-matched WT brain section, confirming the amyloid plaques-free healthy brain (FIG. 13A). The hippocampal damage, a hallmark of advanced AD condition was partially observed in 14 month old APP/PS1 mice. Age-matched AD, and WT cohorts were administered with TGR63 (5 mg/kg body weight/day) and vehicle starting from the age of 6 months following the treatment protocols as shown in FIG. 14. The experimental mice were sacrificed after completing the behavioral studies (14 months) to investigate amyloid deposits in the brain using immunohistochemistry. The sagittal brain sections were permeabilized and blocked with PBTx (0.1 M PBS and 0.1% TritonX-100) and goat serum (1%) containing BSA (2%) at room temperature, respectively. […]

Structure (SMILES): CN(C)c1ccc(C#Cc2ccc3c4c(cccc24)C(=O)N(CC[N+](C)(C)C)C3=O)cc1 [TGR63, 2-(6-((4-(dimethylamino)phenyl)ethynyl)-1,3-dioxo-1H-benzo[de]isoquinolin-2(3H)-yl)-N,N,N-trimethylethan-1-aminium]
- BBB crossing ability (MALDI of brain lysate) [1]: confirmed BBB crossing ability of TGR63
- exploration in target quadrant relative to AD vehicle cohort (APP/PS1 and WT mice; AD TGR63 cohort, probe trial): < 20%
- spatial memory formation (latency to hidden platform during training) (APP/PS1 and WT mice; AD TGR63 cohort, training days): significant improvement in spatial memory formation compared to AD vehicle cohort
- platform region crossings, probe trial (APP/PS1 and WT mice; AD TGR63 cohort, AD vehicle ~1 time, WT vehicle ~4 times): ~ 4 times
- exploration in target quadrant, probe trial (APP/PS1 and WT mice; AD TGR63 cohort, AD vehicle ~13%): ~ 34 % of total time
- time in without platform quadrants, probe trial (APP/PS1 and WT mice; AD TGR63 cohort, AD vehicle ~87%): ~66 % of total time
- exploration in target quadrant, probe trial (APP/PS1 and WT mice; WT TGR63 cohort, WT vehicle ~33%): < 35 % of total time
- time in without platform quadrants, probe trial (APP/PS1 and WT mice; WT TGR63 cohort, WT vehicle ~67%): ~58 % of total time
- Aβ plaques deposits, area of the hippocampus (APP/PS1 mice; AD (APP/PS1) mice, 5 mg/kg body weight/day from 6 to 14 months, vehicle 6.28%): 0.94 % area
- Aβ plaques deposits, area of the cortex (APP/PS1 mice; AD (APP/PS1) mice, 5 mg/kg body weight/day from 6 to 14 months, vehicle 8.87%): 1.94 % area
- reduction of Aβ deposits in the cortex (APP/PS1 mice; AD mice, versus vehicle): 78%
- reduction of Aβ deposits in the hippocampus (APP/PS1 mice; AD mice, versus vehicle): 85%
